Data from article PMC12292390, “Discovery of Dietary Plant Flavonols as Novel Potent Inhibitors Targeting DYRK1A Kinase” (Biomolecules, 2025).
“Also recorded” adds a separate entry of the source. Where two headings read alike, the source gives them in different places. One block for each compound: values may come before it.

Tests used:
DYRK1A = biological target: T1, DYRK1A (Homo sapiens, UniProt Q13627); assay: DYRK1A kinase inhibition assay (ADP-Glo Kinase Assay, DYRKtide substrate); assay type: biochemical; details: for DYRK1A inhibition (in words): at the concentrations tested;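 as to all read-outs here: DYRKtide phosphorylation read out by luminescence, reaction run in Tris buffer pH 7.5 with MgCl2 and BSA, containing 1% DMSO or methanol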
T1 construct: The DNA encoding DYRK1A with a non-cleavable N-terminal MBP-tag was synthesized by Genscript; made in house; host or cells: E. coli BL21 (DE3) RIPL

[1] = ref ChemSpider, cited from earlier work; for LogP: ACD/LogP; for HBA (hydrogen bond acceptor number): first figure of HBA/HBD; for PSA: polar surface area; for HBD (hydrogen bond donor number): second figure of HBA/HBD
HeLa cells [2] = assay: Cell morphology analysis (microscopy); assay type: cell-based; details: 72 h
Method: (§1) HeLa cells were maintained in high-glucose Dulbecco’s Modified Eagle Medium (DMEM) supplemented with 10% (v/v) fetal bovine serum (FBS) at 37 °C in an incubator with 5% CO2.
HeLa cells were seeded at a density of 1.5 × 10^5 per well in 6-well plates and incubated overnight. Cells were then treated with different concentrations of flavonoids for 72 h. The final concentrations of methanol and DMSO were 4% and 1%, respectively. Morphology changes were observed using an Olympus IX83 (Evident Scientific, Tokyo, Japan) inverted microscope with a 40× objective.

HeLa cells [3] = assay: Cell viability assay (WST-8); assay type: cell-based; details: 48 h treatment, WST-8, various concentrations
Method: as §1
HeLa cells were seeded at a density of 3.3 × 10^3 per well in 96-well plates and incubated overnight. Cells were then treated with various concentrations of flavonoids. After 48 h incubation, 10 μL of WST-8 reagent (ab228554, Abcam, Waltham, MA, USA) was added to each well and incubated for 1 h at 37 °C. Absorbance was measured at 460 nm using a microtiter plate reader (SpectraMax iD3, Molecular Devices, LLC., San Jose, CA, USA).

[4] = ADP-Glo, 100 μM ATP, 1 mg/mL DYRKtide, 30 nM DYRK1A, 1 h room temperature, read-out: IC50

SMILES: O=c1c(O)c(-c2ccccc2)oc2ccc(O)cc12 [3,6-Dihydroxyflavone]
DYRK1A inhibition (in words) (DYRK1A): only weak inhibition; also recorded: low inhibition of kinase
LogP [1]: 3.64
HBA (hydrogen bond acceptor number) [1]: 4
PSA [1]: 67 Å^2
HBD (hydrogen bond donor number) [1]: 2

SMILES: O=c1c(O)c(-c2ccccc2)oc2cc(O)ccc12 [3,7-Dihydroxyflavone]
DYRK1A inhibition (in words) (DYRK1A): only weak inhibition; also recorded: low inhibition of kinase
LogP [1]: 3.27
HBA (hydrogen bond acceptor number) [1]: 4
PSA [1]: 67 Å^2
HBD (hydrogen bond donor number) [1]: 2

SMILES: O=c1c(O)c(-c2ccccc2)oc2ccccc12 [3-Hydroxyflavone]
DYRK1A inhibition (in words) (DYRK1A): no detectable activity; also recorded: low inhibition of kinase
LogP [1]: 3.76
HBA (hydrogen bond acceptor number) [1]: 3
PSA [1]: 47 Å^2
HBD (hydrogen bond donor number) [1]: 1

IC50 (DYRK1A; [4]): 1020 nM
DYRK1A inhibition (in words) (DYRK1A): effective inhibition
DYRK1A inhibition (in words) (DYRK1A; listed as apigenin): only weak inhibition
SMILES: O=c1cc(-c2ccc(O)cc2)oc2cc(O)cc(O)c12 [Apigenin]
LogP [1]: 3.04
HBA (hydrogen bond acceptor number) [1]: 5
PSA [1]: 87 Å^2
HBD (hydrogen bond donor number) [1]: 3

SMILES: O=C1c2c(O)cc(O)cc2O[C@H](c2cc(O)c(O)c(O)c2)[C@H]1O [Dihydromyricetin]
DYRK1A inhibition (in words) (DYRK1A): no detectable activity; also recorded: lack of activity
LogP [1]: 1.23
HBA (hydrogen bond acceptor number) [1]: 8
PSA [1]: 148 Å^2
HBD (hydrogen bond donor number) [1]: 6

IC50 (DYRK1A; [4]): 149 nM
SMILES: O=c1c(O)c(-c2ccc(O)c(O)c2)oc2cc(O)ccc12 [Fisetin]
morphological changes in HeLa cells (HeLa cells [2]; 40 μM, 4% methanol): clear apoptotic features, including cell shrinkage, detachment, and the formation of apoptosis bodies; also recorded: classic apoptosis features
cytotoxicity / cell viability of HeLa cells (in words) (HeLa cells [3]): slight cytotoxicity effect
cytotoxicity / cell viability of HeLa cells (in words) (HeLa cells [3]; listed as fisetin): significantly reduced
LogP [1]: 2.52
HBA (hydrogen bond acceptor number) [1]: 6
PSA [1]: 107 Å^2
HBD (hydrogen bond donor number) [1]: 4

SMILES: COc1cc(-c2oc3cc(O)cc(O)c3c(=O)c2O)ccc1O [Isorhamnetin]
IC50 (DYRK1A): 418 nM
DYRK1A inhibition (in words) (DYRK1A): moderate activity
morphological changes in HeLa cells (HeLa cells [2]; 40 μM, 4% methanol): clear apoptotic features, including cell shrinkage, detachment, and the formation of apoptosis bodies; also recorded: classic apoptosis features
cytotoxicity / cell viability of HeLa cells (in words) (HeLa cells [3]): minimal cytotoxicity
LogP [1]: 1.76
HBA (hydrogen bond acceptor number) [1]: 7
PSA [1]: 116 Å^2
HBD (hydrogen bond donor number) [1]: 4

IC50 (DYRK1A; [4]): 3520 nM
DYRK1A inhibition (in words) (DYRK1A): effective inhibition
SMILES: COc1ccc(-c2oc3cc(O)cc(O)c3c(=O)c2O)cc1 [Kaempferide]
DYRK1A inhibition (in words) (DYRK1A; listed as kaempferide): only weak inhibition; also recorded: low inhibition of kinase
LogP [1]: 2.74
HBA (hydrogen bond acceptor number) [1]: 6
PSA [1]: 96 Å^2
HBD (hydrogen bond donor number) [1]: 3

IC50 (DYRK1A; [4]): 296 nM
DYRK1A inhibition (in words) (DYRK1A): moderate activity
SMILES: O=c1c(O)c(-c2ccc(O)cc2)oc2cc(O)cc(O)c12 [Kaempferol, 3,5,7,4′-tetrahydroxyflavone]
morphological changes in HeLa cells (HeLa cells [2]; 100 μM, 1% DMSO): significant elongation and shrinkage; also recorded: elongated morphology
cytotoxicity / cell viability of HeLa cells (in words) (HeLa cells [3]): significant cytotoxicity; also recorded: significantly reduced; also recorded: significant cytotoxic and pro-apoptotic effects
LogP [1]: 2.05
HBA (hydrogen bond acceptor number) [1]: 6
PSA [1]: 107 Å^2
HBD (hydrogen bond donor number) [1]: 4

IC50 (DYRK1A; [4]): 798 nM
SMILES: O=c1cc(-c2ccc(O)c(O)c2)oc2cc(O)cc(O)c12 [Luteolin]
LogP [1]: 2.40
HBA (hydrogen bond acceptor number) [1]: 6
PSA [1]: 107 Å^2
HBD (hydrogen bond donor number) [1]: 4

IC50 (DYRK1A; [4]): 478 nM
SMILES: O=c1c(O)c(-c2ccc(O)cc2O)oc2cc(O)cc(O)c12 [Morin]
morphological changes in HeLa cells (HeLa cells [2]; 40 μM, 4% methanol): clear apoptotic features, including cell shrinkage, detachment, and the formation of apoptosis bodies; also recorded: classic apoptosis features
cytotoxicity / cell viability of HeLa cells (in words) (HeLa cells [3]): slight cytotoxicity effect; also recorded: significantly reduced
LogP [1]: 1.61
HBA (hydrogen bond acceptor number) [1]: 7
PSA [1]: 127 Å^2
HBD (hydrogen bond donor number) [1]: 5

SMILES: O=c1c(O)c(-c2cc(O)c(O)c(O)c2)oc2cc(O)cc(O)c12 [Myricetin]
IC50 (DYRK1A; [4]): 633 nM
LogP [1]: 2.11
HBA (hydrogen bond acceptor number) [1]: 8
PSA [1]: 148 Å^2
HBD (hydrogen bond donor number) [1]: 6

DYRK1A inhibition (in words) (DYRK1A): only weak inhibition
SMILES: O=C1C[C@@H](c2ccc(O)cc2)Oc2cc(O)cc(O)c21 [Naringenin]
LogP [1]: 3.19
HBA (hydrogen bond acceptor number) [1]: 5
PSA [1]: 87 Å^2
HBD (hydrogen bond donor number) [1]: 3

IC50 (DYRK1A; [4]): 738 nM
SMILES: O=c1c(O)c(-c2ccc(O)c(O)c2)oc2cc(O)cc(O)c12 [Quercetin, reference compound]
LogP [1]: 2.08
HBA (hydrogen bond acceptor number) [1]: 7
PSA [1]: 127 Å^2
HBD (hydrogen bond donor number) [1]: 5
